In experiment [1] the test system is thoracic aortae of TRPV2−/− mice. Put plainly: Vascular smooth muscle reactivity in isolated aorta (DMT myograph), TRPV2 knockout. Details: species or system mouse; developed tension: dose or concentration left out as unconfirmed. As to conditions: for EC50: Mus musculus, phenylephrine pre-contracted, read-out: EC50 for the relaxing effect.
For experiment [2], the system named is thoracic aortae of wild type mice. Put plainly: Vascular smooth muscle reactivity in isolated aorta (DMT myograph), wild type. Details: species or system mouse. As to conditions: for EC50: Mus musculus, phenylephrine pre-contracted, read-out: EC50 for the relaxing effect.
A further experiment has as its target T1, TRPV2 (Homo sapiens, UniProt Q9Y5S1).
T1 sequence (Q9Y5S1 1-764): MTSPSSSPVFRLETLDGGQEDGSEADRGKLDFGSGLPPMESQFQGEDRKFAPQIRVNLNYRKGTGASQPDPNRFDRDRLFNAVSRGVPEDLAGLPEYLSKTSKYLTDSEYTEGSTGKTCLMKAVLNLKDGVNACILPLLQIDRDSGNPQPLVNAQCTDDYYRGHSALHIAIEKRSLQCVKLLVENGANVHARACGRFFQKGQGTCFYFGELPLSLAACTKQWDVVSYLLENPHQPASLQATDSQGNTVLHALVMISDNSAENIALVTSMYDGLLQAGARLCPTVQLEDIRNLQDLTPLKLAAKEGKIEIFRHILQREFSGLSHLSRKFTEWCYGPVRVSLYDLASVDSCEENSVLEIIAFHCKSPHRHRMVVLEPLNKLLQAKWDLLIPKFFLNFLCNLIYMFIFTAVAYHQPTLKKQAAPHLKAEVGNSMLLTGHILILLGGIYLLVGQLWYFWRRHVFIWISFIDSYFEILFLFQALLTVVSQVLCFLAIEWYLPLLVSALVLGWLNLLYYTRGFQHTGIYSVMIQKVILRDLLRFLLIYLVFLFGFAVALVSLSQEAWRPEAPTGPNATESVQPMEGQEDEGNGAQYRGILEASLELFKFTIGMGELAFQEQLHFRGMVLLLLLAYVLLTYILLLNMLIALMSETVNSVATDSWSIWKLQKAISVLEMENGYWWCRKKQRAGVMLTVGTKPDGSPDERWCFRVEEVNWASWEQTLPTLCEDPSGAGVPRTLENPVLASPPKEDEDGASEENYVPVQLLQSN
As to conditions: cited from earlier work.

Experiment [3] has as its system isolated WT cardiomyocytes. As to conditions: putatively through TRPV2 stimulation; cited from earlier work.
The next experiment deals with TRPV2−/− mice. Put plainly: Invasive cardiac hemodynamics in intact anesthetized mice (LV pressure development), TRPV2 knockout. The class given is in vivo, mouse. As to conditions: probenecid 30 and 100 μg/g i.v. bolus. The procedure:
(§1) All animal procedures were performed with the approval of the Institutional Animal Care and Use Committee (IACUC) of the University of Cincinnati and in accordance with the Guide for the Care and Use of Laboratory Animals (NIH, revised 1996). All wild type (WT) mice (B6129SF2/J F2 and C57BL6J, Jackson laboratories) and TRPV2^−/− mice (breeding pairs provided by Dr. M. Caterina, John's Hopkins, Baltimore, Md.) were males at 12-16 weeks of age (REF). Prior to experiments, mice were maintained on normal rodent chow and water ad libitum, and on a 14 hr/10 hr light/dark cycle (6 AM to 8 PM).
Measurements of left ventricular performance and regional blood flow were performed in separate groups of WT and TRPV2^−/− mice as previously described {Lorenz, 2008#1}. […] A tracheotomy was performed (PE-90), and body temperature was monitored and maintained with a feedback-controlled heating table. […] Pressure, flow, and ECG signals were recorded and analyzed using a PowerLab system (ADInstruments). […] Maximum dP/dt (dP/dtmax) and dP/dt at 40 mmHg of developed pressure (dP/dt40) were calculated from the first derivative of the pressure waveforms. Cerebral vascular resistance (CVR) was calculated from recorded channels of mean arterial pressure and mean cerebral blood flow (CVR=MAP/CBF). […]

The next experiment concerns WT mice. Put plainly: Invasive cardiac hemodynamics in intact anesthetized mice (LV pressure development), wild type. Type of experiment: in vivo, mouse. Here is the method: as §1
Measurements of left ventricular performance and regional blood flow were performed in separate groups of WT and TRPV2^−/− mice as previously described {Lorenz, 2008#1}. Briefly, mice were anesthetized with an intraperitoneal injection of ketamine (50 μg/gBW) and inactin (thiobutabarbital, 100 μg/gBW, Sigma, MA). A tracheotomy was performed (PE-90), and body temperature was monitored and maintained with a feedback-controlled heating table. The right femoral artery was cannulated with fluid-filled polyethylene tubing for measurement of blood pressure and connected to a low compliance pressure transducer (COBE Cardiovascular, Arvada, Colo.). The right femoral vein was cannulated for delivery of drugs. A high fidelity, 1.2F Scisense pressure catheter (Scisense, London, ON, Canada) was inserted into the right carotid artery and advanced into the left ventricle to monitor cardiac performance. ECG leads were placed on the right and left arms, and left leg and connected to a BIOAmp (ADInstruments, Colorado Springs, Colo.). For carotid blood flow measurements, the left carotid artery was isolated and fitted with a 0.5-PSB perivascular flow probe connected to a TS420 flow meter (Transonic Systems, Ithaca, N.Y.). Pressure, flow, and ECG signals were recorded and analyzed using a PowerLab system (ADInstruments). Hemodynamic measurements were taken at the basal state and after the administration of 30 and 100 μg/g doses of probenecid i.v., with 5 minutes between each dose (100 μg/μl delivered as 0.3 and 1.0 μl/gBW bolus). Measurements were taken from the final 30-40 seconds of each dosage period. Maximum dP/dt (dP/dtmax) and dP/dt at 40 mmHg of developed pressure (dP/dt40) were calculated from the first derivative of the pressure waveforms. Cerebral vascular resistance (CVR) was calculated from recorded channels of mean arterial pressure and mean cerebral blood flow (CVR=MAP/CBF).
Statistical analysis was performed by analysis of variance (ANOVA) using either a single factor within-subjects design, or a two- or three-factor mixed design with repeated measures as appropriate. Individual contrasts were used to compare group effects and interactions when needed, and the Tukey post-hoc test was used to compare individual means where appropriate (SigmaStat v3.5, Point Richmond, Calif.). Data are presented as means±S.E.M., and differences were regarded as significant at P<0.05.

Another experiment concerns isolated aortae. The experiment in a line: Vasoconstrictor effect of probenecid in isolated aortae (cumulative concentration-force relationship). Details: species or system mouse.
The mark [4] stands for this setting: endothelium-denuded (−E), pre-contracted with 3 mM phenylephrine.

Molecules are shown by their SMILES. Where two headings read alike, the source gives them in different places.

With `CNC[C@H](O)c1cccc(O)c1` [phenylephrine], the “maximal developed tension in response to phenylephrine” value was found to be 6.07±0.55 mN in experiment [1] (endothelium-denuded (−E), n=8); 1.75±0.25 mN in experiment [1] (intact endothelium (+E)); 5.99±0.74 mN in experiment [2] (endothelium-denuded (−E), n=8); 1.45±0.12 mN in experiment [2] (intact endothelium (+E)).

What is called EC50 is the concentration giving half of the maximal effect. For the compound `CCCN(CCC)S(=O)(=O)c1ccc(C(=O)O)cc1` [probenecid], the TRPV2 agonist activity result at TRPV2 is recorded as “selective agonist of TRPV2”. Further, the “cytosolic Ca2+ concentrations and Ca2+ sparks” value in experiment [3] was “increases cytosolic Ca^2+ concentrations and increased Ca^2+ sparks”. For the same compound, the EC50 in experiment [1] (intact endothelium (+E)) was found to be 0.52 ± 0.11 mM; in experiment [1] (without endothelium (−E)), 4.59 ± 0.52 mM; in experiment [2] (intact endothelium (+E)) it was 0.67 ± 0.21 mM; in experiment [2] (without endothelium (−E)), 4.56 ± 0.34 mM. Further, the “dilatory response, concentration threshold” value in experiment [1] (setting [4]) and in experiment [2] (setting [4]) was “no significant dilatory response until a concentration of 1 mM” throughout. For the same compound, in experiment [1] (endothelium-denuded (−E), pre-contracted with phenylephrine), the developed tension result is reported as “about 25 % of maximum”. The “developed tension at 10 mM probenecid” value in experiment [2] (endothelium-denuded (−E), pre-contracted with phenylephrine, 10 mM) is “about 25 % of maximum”. Also, the “contractile function (LV dP/dtmax, dP/dt40), effect relative to WT” value with TRPV2−/− mice is listed as “markedly attenuated”. Also, the lusitropy entry with WT mice (WT mice, low (30 mg/kg) and high (100 mg/kg) doses) was “increased lusitropy”. Besides, the “contractile function (LV dP/dtmax, dP/dt40)” value in the experiment on WT mice (WT mice, probenecid 30 and 100 μg/g i.v. bolus) is given as “robust stimulation of contractile function”. Besides, in the experiment with WT mice (after i.v. bolus administration), the “time to maximal effect on LV dP/dt” value is on record as “maximal within one minute”. Besides, the “duration of stable effect on LV dP/dt” value with WT mice (after i.v. bolus administration, at the time of reported measurement) is listed as “at least 5 minutes”. In the experiment with WT mice (rodents, summary statement), the “cardiac relaxation and diastolic function” value is “improved cardiac relaxation and improved diastolic function”. Further, the vasoactive effect result with isolated aortae (low and high doses, even in deendothelialized vessels (discussion)) is given as “no significant vasoactive effect”. In addition, in the experiment with isolated aortae (with or without intact endothelium, concentrations as high as 10 mM), the “vasoconstrictor effect (force production)” value is listed as “no evidence was found of increased force production”.

These data come from patent US10583103B2, “Method of treating heart failure with preserved ejection fraction with probenecid” (University Of Cincinnati, priority 2013, dated 2020).
